From patent US20070053062A1, “Optical part and projection type display apparatus using same” (priority 2005, published 2007) come the findings set out here.

Experiment [1] has as its system mildews. Kind of experiment: Mildew proofness of lenses with anti-reflecting membrane containing mildew proofing agent, left to stand in thermo-hygrostat. The format is cell-based. Also noted: key: ∘: Growing of mildews was not recognized by visual inspection and inspection with a 5x magnifier.; Growing of mildews was not recognized by visual inspection, but recognized by inspection with a 5x magnifier.; xx: Growing of mildews was recognized by both the visual inspection and the inspection with a 5x magnifier. Particulars: acrylic resin lens, anti-reflecting membrane containing the agent; 1 week in thermo-hygrostat of 40° C. and 95% RH; visual inspection and 5× magnifier. As to the method: Anti-reflecting paints containing the mildew proofing agentwere prepared by mixing a silica sol solution as a binder (containing 2-propanol as a main solvent and 10% by weight of an alkoxysilane polymer) (2 parts by weight), a 5 wt % dispersion of silicon dioxide having an average length of major axis of about 60 nm as inorganic oxide particles (35 parts by weight), 2-propanol (100 parts by weight), and a 2 wt % 2-propanol solution of the mildew proofing agent (2 parts by weight). Here, 2-propanol was used as the solvent because most of the mildew proofing agents only partially dissolve in water.
Next, the same lens of acrylic resin as used in Example 1 as one of the optical parts of the present invention was cleaned in the same manner as in Example 1, and thereafter the lens was coated with the anti-reflecting paint containing the mildew proofing agent in place of the anti-reflecting paint used in Example 1, followed by heating the coat. In this case, the anti-reflecting paint was also coated on the back surface of the lens as in Example 1. Thus, a lens having an anti-reflecting membrane containing the mildew proofing agent was produced.
Next, in order to confirm whether these lenses had mildew proofness or not, these lenses were left to stand for 1 week in a thermo-hygrostat of 40° C. and 95% RH. For comparison, the lens having the anti-reflecting membrane containing no mildew proofing agent was also left to stand together. After 1 week, it was confirmed by visual inspection and inspection with a 5× magnifier whether mildews grew or not.

Experiment [2] deals with mildews. Kind of experiment: Mildew proofness of the lenses left to stand in thermo-hygrostat after dipping in hot water. It counts as cell-based. Also noted: key to Growing of mildew: ∘: Growing of mildews was not recognized by visual inspection and inspection with a 5x magnifier.; Growing of mildews was not recognized by visual inspection, but recognized by inspection with a 5x magnifier.; xx: Growing of mildews was recognized by both the visual inspection and the inspection with a 5x magnifier. The settings on record: lens dipped in hot water at 40° C. for 1 hour; for Growing of mildews (in words): then 1 week at 40° C. and 95% RH; for Growing of mildew: then 1 week in thermo-hygrostat of 40° C. and 95% RH, visual inspection and 5× magnifier. As to the method:
Then, the lenses having the anti-reflecting membrane containing the mildew proofing agent were dipped in hot water at 40° C. for 1 hour and thereafter were left to stand for 1 week in a thermo-hygrostat of 40° C. and 95% RH. After lapse of 1 week, it was examined by visual inspection and inspection with a 5× magnifier whether mildews grew or not.
In compounds 13, 16, 18 and 20, the elemental proportion of nitrogen was 6% by weight or more.

For the compound `CCCCCCCC[n+]1ccccc1` [Compound 13], the values for the Growing of mildew entry in experiment [1] and in experiment [2] were “∘” and “x”, respectively. In addition, the “Growing of mildews (in words)” value in experiment [2] was “Growing of a few mildews was seen”.

For `CCCCCCCCCC[n+]1ccccc1` [Compound 14], the Growing of mildew entry in experiment [1] and in experiment [2] was “∘” in each case.

With `CCCC[n+]1ccccc1` [Compound 16], in experiment [1], the Growing of mildew result is “∘”. For the same compound, in experiment [2], the “Growing of mildews (in words)” value is given as “Growing of a few mildews was seen” and the Growing of mildew entry was “x”.

With `CCCCCC[n+]1ccccc1` [Compound 17], the Growing of mildew result in experiment [1] and in experiment [2] was “∘” throughout.

Consider `C[n+]1ccccc1` [Compound 18], for which the Growing of mildew result in experiment [1] was “∘”. In experiment [2], the “Growing of mildews (in words)” value is reported as “Growing of a few mildews was seen” and the Growing of mildew result is “x”.

As to `CC(C)(C)OC(=O)Nc1ccc(Cl)cc1` [Compound 27], the Growing of mildew result in experiment [1] is “∘”.

Turning to `CC(C)(C)OC(=O)Nc1ccc(I)cc1` [Compound 28], the Growing of mildew entry in experiment [1] is recorded as “∘”.

`O=C(Nc1ccc(Cl)cc1)Oc1ccccc1` [Compound 29]: in experiment [1], the Growing of mildew entry was “∘”.
